Results reported in US12492174B2, “Morpholine-3-carboxamide derivatives as prostaglandin E2 receptor 4 (EP4) agonists for the treatment of gastrointestinal and pulmonary diseases” (NXERA PHARMA UK LIMITED, priority 2022, dated 2025).

Experiments:
[1] = Unidirectional Caco-2 cell permeability assay; format: in vitro ADME; conditions: human, n=2, apical pH 6.5, basolateral pH 7.4, 1 hour, 37° C.
Protocol: Caco-2 cells (ECACC) were seeded onto 24-well Transwell plates at 2×10^5 cells per well and used in confluent monolayers after a 21 day culture at 37° C. under 5% CO2. Test compounds were incubated at 10 μM, 0.2% DMSO final, n=2 in assay buffer (Hanks balanced salt solution supplemented with 25 mM HEPES, adjusted to pH 6.5). Hanks balanced salt solution supplemented with 25 mM HEPES, adjusted to pH 7.4 (0.2% DMSO final) was used for the basolateral chamber (as receiver).
Incubations were performed at 37° C., with samples removed from both donor and acceptor chambers at T=0 and 1 hour and compound analysed by mass spectrometry (LC-MS/MS) including an analytical internal standard (0.5 μM carbamazepine).
Apparent permeability (Papp) values are shown in Table 4 and were determined from the relationship:
Where V is the volume of each Transwell compartment (apical 125 μL, basolateral 600 μL), and concentrations are the relative MS responses for compound (normalized to internal standard) in the donor chamber before incubation and acceptor chamber at the end of the incubation Area=area of cells exposed for drug transfer (0.33 cm^2).
Lucifer Yellow (LY) was added to the apical buffer in all wells to assess viability of the cell layer. As LY cannot freely permeate lipophilic barriers, a high degree of LY transport indicates poor integrity of the cell layer and wells with a LY Papp>10×10^−6 cm/s were rejected.
Compound recovery from the wells was determined from MS responses (normalized to internal standard) in donor and acceptor chambers at the end of incubation compared to response in the donor chamber pre-incubation.

human EP4 = biological target: T1, human EP4 (Homo sapiens, UniProt P35408); assay: cAMP Gs functional assay (HTRF cAMP dynamic-2); format: cell-based; conditions: for Emax: HEK293, HEK293 cells transfected with EP4 Bacmam virus, positive control 10 uM PGE2; for EC50: HEK293 cells transfected with EP4 Bacmam virus, 30 mins at 37° C., −Log of the molarity (M), read-out: cAMP human EP4 pEC50 (converted)
T1 construct: expressed in transfected cells; host or cells: HEK293 cells transduced with EP4 BacMam virus
T1 sequence (P35408 whole entry): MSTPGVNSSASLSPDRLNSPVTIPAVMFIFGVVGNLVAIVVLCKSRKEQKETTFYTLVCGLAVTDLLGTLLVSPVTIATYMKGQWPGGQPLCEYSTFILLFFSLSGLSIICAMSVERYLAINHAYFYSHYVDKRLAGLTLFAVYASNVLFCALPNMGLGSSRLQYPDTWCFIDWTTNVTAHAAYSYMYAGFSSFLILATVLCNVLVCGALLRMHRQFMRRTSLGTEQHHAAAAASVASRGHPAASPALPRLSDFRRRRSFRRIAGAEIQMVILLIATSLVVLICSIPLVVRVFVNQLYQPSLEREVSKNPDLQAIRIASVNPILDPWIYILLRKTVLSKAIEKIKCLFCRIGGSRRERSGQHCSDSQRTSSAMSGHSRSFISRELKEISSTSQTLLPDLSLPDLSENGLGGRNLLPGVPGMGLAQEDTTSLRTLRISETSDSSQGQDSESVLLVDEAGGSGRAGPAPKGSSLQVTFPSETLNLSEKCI
Protocol: Cloning, Baculovirus generation, large scale infection of HEK293 cells and membrane preparation: Human prostaglandin E2 receptor 4 (EP4) was cloned into pBacMam expression vector (GeneScript, UK). Transposition of EP4 DNA was performed using Invitrogen's Bac-to-Bac Baculovirus Expression Systems. P0 baculovirus was generated by transfecting SF9 Cells with bacmid DNA using Cellfectin II transfection reagent (ThermoFisher Scientific, UK). Following P0 generation P1 virus was then generated ready for large scale infection and membrane preparation. HEK293 cells were grown in DMEM (ThermoFisher Scientific, UK), supplemented with 10% heat inactivated fetal bovine serum (FBS). Cells were infected at a seeding density of 3.5 million cells/mL in 500 cm^3 flasks at 5% v/v EP4 Bacman. Expression was carried out over a 36 hr period at 37° C. with 5% CO2. The cells were removed using PBS and a cell scrapper. The cell culture was centrifuged at 2500 RPM for 10 mins at 4° C. The supernatant was then poured off and the pellet stored at −80° C. The pellet was defrosted and re-suspended in 15 mL of homogenising buffer (20 mM HEPES, 10 mM EDTA, pH 7.4). Then homogenised in mechanical homogeniser (VMR) for 10 seconds. The membrane was centrifuged in centrifuge tubes at 40,000 g for 15 mins at 4° C. The supernatant was poured away and re-suspended in 15 mL of homogenising buffer. Homogenised for 20 seconds. The membrane was centrifuged at 40,000 g for 45 mins at 4° C. The membrane was re-suspended in 3 mL of storage buffer (20 mM HEPES, 0.1 mM EDTA, pH 7.4) mixing well. The resulting membranes were then stored at −80° C.
cAMP Gs Functional Assay: cAMP production following EP4 receptor activation was determined using the Homogeneous Time-Resolved Fluorescence (HTRF) cAMP dynamic-2 assay (Cisbio, France). HEK293 cells were transfected using a 0.5% EP4 Bacmam virus for 36 hours, before dissociating the cells, and freezing at −150° C.
On the day of testing, increasing concentration of test compounds, alongside positive controls (10 uM PGE2 (Tocris, Abingdon, UK)) and negative control (DMSO (Sigma-Aldrich, UK) were added to a ProxiPlate-384 Plus, White 384-shallow well Mircoplate, (PerkinElmer, USA) using the ECHO dispense.
Cells were defrosted in a water bath and resuspended in DMEM supplemented with 10% FBS before centrifuging at 1200 RPM for 5 mins to form a pellet. The pellet was resuspended in assay buffer (DMEM+0.5 mM IBMX (Tocris, Abingdon, UK)) to 0.5×10^6 cells/mL. Cell suspension, for a final assay concentration of 5000 cell/well was added using the multidrop to the pre-dispensed assay plate. The plate was then incubated at 37° C. for 30 mins, with 5% CO2. The cAMP production was determined as manufacturer's instructions, before plates were read on a PheraStar fluorescence plate reader (BMG LabTech, Germany).
The pEC50 values (−Log of the molarity (M) in mol/liter) were calculated from the mid-point of the curve using dotmatics as shown in Table 3.

Papp A→B at 1 h, 10 μM [1] [×10⁻⁶ cm/s]	Emax (human EP4) [%]	EC50 (human EP4) [M]	SMILES
< 0.1	94	2e-08	Cc1cc(C(N)=O)ccc1-c1cc(O)cc(CN2CCOC[C@H]2C(=O)N[C@H](C)c2ccc(C(=O)O)cc2)c1 [Example 38, 4-((R)-1-((S)-4-((4′-carbamoyl-5-hydroxy-2′-methyl-[1,1′-biphenyl]-3-yl)methyl)morpholine-3-carboxamido)ethyl)benzoic acid]
0.35	99	7.94e-11	Cc1cc(C(N)=O)ccc1-c1cc(O)cc(CN2CCOC[C@@H]2C(=O)N[C@H](C)c2ccc(C(=O)O)cc2)c1 [Example 39, 4-((R)-1-((R)-4-((4′-carbamoyl-5-hydroxy-2′-methyl-[1,1′-biphenyl]-3-yl)methyl)morpholine-3-carboxamido)ethyl)benzoic acid]
